Test results as given in patent US12023345B2, “Compositions and methods for treating lysosomal disorders” (RUSH UNIVERSITY MEDICAL CENTER, priority 2014, dated 2024).

Assays:
[1] = test system: PPAR luciferase reporter (PPRE-x3-TK-luc); assay: PPAR luciferase reporter (PPRE-x3-TK-luc) in astrocytes; type: cell-based, mouse; conditions: different doses of aspirin, 4 h
Protocol: FIG. 14(A)-(B) illustrates activation of PPARα by aspirin in primary mouse astrocytes. 14(A) Cells were treated with 5 μM aspirin for different min intervals followed by isolation of nuclear extracts and electrophoretic mobility shift assay for monitoring DNA-binding activity of PPARα using PPARα-binding site of the Tfeb promoter as a probe. 14(B) Astrocytes isolated from wild type, PPARα (−/−) and PPARβ (−/−) mice were transfected with PPAR luciferase reporter (PPRE-x3-TK-luc) plasmid and after 24 h of transfection, cells were stimulated with different doses of aspirin. After 4 h, firefly luciferase activity was measured in total cell extracts. Results are mean +SD of three different experiments. ^ap<0.001 vs control.

LAMP2 = LAMP2 protein by Western blot and immunocytochemistry in mouse primary brain cells; type: cell-based; conditions: for level of LAMP2 (Western blot): different doses of aspirin
Protocol: Immunostaining of Cells: Immunocytochemistry was performed as described earlier (29). Briefly, 8 well chamber slides containing mouse primary astrocytes, mouse neurons were cultured to 70-80% confluence were fixed with chilled Methanol (Fisher Scientific, Waltham, MA) overnight, followed by two brief rinses with filtered PBS. Samples were blocked with 2% BSA (Fisher Scientific) in PBS containing Tween 20 (Sigma) and Triton X-100 (Sigma) for 30 min and incubated at room temperature under shaking conditions for 2 hr in PBS containing the following anti-mouse primary antibodies: TFEB (1:1000; Abcam), GFAP, (1:1000; DAKO), LAMP2 (1:500, Abcam), NeuN (1:500, Millipore), and MAP2 (1:200, Millipore). […] Following four 15 minute washes with filtered PBS, cells were incubated for 4-5 min with 4′, 6-diamidino-2-phenylindole (DAPI, 1:10,000; Sigma). The samples were run in an EtOH and Xylene (Fisher) gradient, mounted, and observed under Olympus BX41 fluorescence microscope.
Immunoblotting: Western blotting was conducted as described earlier (31, 32) with modifications. Briefly, cells were scraped in 1× RIPA buffer, protein was measured using Bradford reagent and sodium dodecyl sulfate (SDS) buffer was added and electrophoresed on NuPAGE® Novex® 4-12% Bis-Tris gels (Invitrogen) and proteins transferred onto a nitrocellulose membrane (Bio-Rad) using the Thermo-Pierce Fast Semi-Dry Blotter.
The membrane was then washed for 15 min in TBS plus Tween 20 (TBST) and blocked for 1 hr in TBST containing BSA. Next, membranes were incubated overnight at 4° C. under shaking conditions with the following 1° antibodies; TFEB (1:1000, Abcam), LAMP2 (1:500, Abcam) and β-actin (1:800; Abcam, Cambridge, MA). The next day, membranes were washed in TBST for 1 hr, incubated in 2° antibodies against 1° antibody hosts (all 1:10,000; Jackson ImmunoResearch) for 1 hr at room temperature, washed for one more hour and visualized under the Odyssey® Infrared Imaging System (Li-COR, Lincoln, NE).

Tfeb = assay: TFEB immunocytochemistry in mouse primary astrocytes and neurons; type: cell-based; conditions: 5 μM aspirin, 12 h
Protocol: Isolation of Primary Mouse Astroglia: Astroglia were isolated from mixed glial cultures as described (24, 25) according to the procedure of Giulian and Baker (26). Briefly, on day 9, the mixed glial cultures were washed three times with Dulbecco's modified Eagle's medium/F-12 and subjected to shaking at 240 rpm for 2 h at 37° C. on a rotary shaker to remove microglia. After 2 days, the shaking was repeated for 24 h for the removal of oligodendroglia and to ensure the complete removal of all nonastroglial cells. The attached cells were seeded onto new plates for further studies.
Isolation of Primary Mouse Neurons: Fetal (E18-E16) mouse neurons were prepared as previously described (27) with modifications. Whole brains were removed and the cells were washed by centrifugation three times at 1200 rpm for 10 min, the pellet dissociated and the cells plated at 10% confluence in 8-well chamber slides pre-treated for >2 hr with Poly-D-Lysine (Sigma, St. Louis, MO). After 4 min, the non-adherent cell suspension was aspirated and […] complete Neurobasal media (Invitrogen) supplemented with 2% B27 was added to each well. The cells were incubated for 4 days prior to experimentation. […] The cells were stimulated with gemfibrozil in Neurobasal media supplemented with 2% B27 minus antioxidants (Invitrogen) for 24 hr prior to methanol fixation and immunostaining.
Immunostaining of Cells: Immunocytochemistry was performed as described earlier (29). Briefly, 8 well chamber slides containing mouse primary astrocytes, mouse neurons were cultured to 70-80% confluence were fixed with chilled Methanol (Fisher Scientific, Waltham, MA) overnight, followed by two brief rinses with filtered PBS. […] The samples were run in an EtOH and Xylene (Fisher) gradient, mounted, and observed under Olympus BX41 fluorescence microscope.

CC(=O)Oc1ccccc1C(=O)O [aspirin]
PPRE-driven luciferase activity ([1]; PPARα (−/−) astrocytes): not PPARα (−/−)
PPRE-driven luciferase activity ([1]; PPARβ (−/−) astrocytes): increased PPRE-driven luciferase activity
PPRE-driven luciferase activity ([1]; WT astrocytes): increased PPRE-driven luciferase activity
level of LAMP2 (Western blot) (LAMP2; PPARα (−/−) astrocytes, 24 h): not PPARα (−/−)
level of LAMP2 (Western blot) (LAMP2; PPARβ (−/−) astrocytes, 24 h): dose-dependently increased the level of LAMP2
level of LAMP2 (Western blot) (LAMP2; WT astrocytes, 24 h): dose-dependently increased the level of LAMP2
LAMP2 protein expression (Western blot), time course (LAMP2; astrocytes, 5 μM aspirin, serum-free): time-dependent increase
LAMP2 protein expression (Western blot), dose (LAMP2; astrocytes, aspirin 2 and 5 μM, 24 h): increase in LAMP2 protein expression
TFEB expression (immunofluorescence) (Tfeb; PPARα (−/−) astrocytes): not PPARα (−/−)
TFEB expression (immunofluorescence) (Tfeb; PPARβ (−/−) astrocytes): induced the expression of TFEB
TFEB expression (immunofluorescence) (Tfeb; WT astrocytes): induced the expression of TFEB
